Activity calls are given as the source filed them. The calls are words filed in the database; no cut-off is given here.
Columns and labels:
[1] = tested on: K562; assay: Cytotoxicity against human K562 cells; format: functional, cell-based
[2] = biological target: Protein kinase C alpha type (Homo sapiens) (UniProt P17252); assay: Inhibition of human full length (His)6-tagged PKCalpha expressed in insect Sf21 cells using histone H1 as substrate assessed as residual enzyme activity at 1 uM measured for 30 mins by [gamma-33P]ATP-based kinase assay
[3] = biological target: Protein kinase C gamma type (Homo sapiens) (UniProt P05129); assay: Inhibition of human full length (His)6-tagged PKCgamma expressed in insect Sf21 cells using histone H1 as substrate assessed as residual enzyme activity at 1 uM measured for 30 mins by [gamma-33P]ATP-based kinase assay
[4] = biological target: Protein kinase C gamma type (Homo sapiens) (UniProt P05129); assay: Inhibition of human full length (His)6-tagged PKCgamma expressed in insect Sf21 cells using histone H1 as substrate assessed as residual enzyme activity at 10 uM measured for 30 mins by [gamma-33P]ATP-based kinase assay
[5] = biological target: T1, Serine/threonine-protein kinase pim-1 (Homo sapiens, UniProt P11309); assay: Inhibition of human full length (His)6-tagged Pim-1 expressed in insect Sf21 cells using RSRHSSYPAGT as substrate assessed as residual enzyme activity at 1 uM measured for 30 mins by [gamma-33P]ATP-based kinase assay
Target sequence in this assay (P11309 whole entry, looked up): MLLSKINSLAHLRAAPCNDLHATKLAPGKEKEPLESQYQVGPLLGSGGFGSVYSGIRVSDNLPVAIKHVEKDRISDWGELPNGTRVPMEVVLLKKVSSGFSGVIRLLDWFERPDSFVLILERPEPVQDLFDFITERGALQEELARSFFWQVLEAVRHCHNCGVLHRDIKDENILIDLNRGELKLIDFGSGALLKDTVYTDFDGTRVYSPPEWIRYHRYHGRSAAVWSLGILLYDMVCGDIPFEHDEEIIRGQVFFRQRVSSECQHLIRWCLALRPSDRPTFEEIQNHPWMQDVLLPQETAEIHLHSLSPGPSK

[6] = biological target: T1, Serine/threonine-protein kinase pim-1; assay: Inhibition of human full length (His)6-tagged Pim-1 expressed in insect Sf21 cells using RSRHSSYPAGT as substrate assessed as residual enzyme activity at 10 uM measured for 30 mins by [gamma-33P]ATP-based kinase assay
Target sequence in this assay (P11309 whole entry, looked up): as above

[7] = tested on: K562; assay: Cytotoxicity against human K562 cells after 72 hrs by MTT assay; format: functional, cell-based; details: K562, 72 h
[8] = Cytotoxicity against human HCT116 cells after 72 hrs by MTT assay; format: functional, cell-based; details: HCT-116, 72 h
[9] = biological target: Protein kinase C alpha type (Homo sapiens) (UniProt P17252); assay: Inhibition of human full length (His)6-tagged PKCalpha expressed in insect Sf21 cells using histone H1 as substrate assessed as residual enzyme activity at 10 uM measured for 30 mins by [gamma-33P]ATP-based kinase assay
[10] = biological target: T1, Serine/threonine-protein kinase pim-1; assay: Inhibition of human full length (His)6-tagged Pim-1 expressed in insect Sf21 cells using RSRHSSYPAGT as substrate measured for 30 mins by [gamma-33P]ATP-based kinase assay
Target sequence in this assay (P11309 whole entry): as the sequence (P11309 whole entry, looked up) above

[11] = biological target: Serine/threonine-protein kinase pim-2 (Homo sapiens, UniProt Q9P1W9); assay: Inhibition of human full length GST-tagged Pim-2 expressed in Escherichia coli using RSRHSSYPAGT as substrate measured for 30 mins by [gamma-33P]ATP-based kinase assay
[12] = tested on: Calf thymus DNA; assay: Displacement of EtBr from calf thymus double stranded DNA by fluorescence spectrophotometric analysis; format: nucleic-acid assay, Bos taurus
[13] = biological target: Serine/threonine-protein kinase pim-3 (Homo sapiens, UniProt Q86V86); assay: Inhibition of human full length (His)6-tagged Pim-3 expressed in insect Sf21 cells using RSRHSSYPAGT as substrate measured for 30 mins by [gamma-33P]ATP-based kinase assay
[14] = tested on: Calf thymus DNA; assay: Binding affinity to calf thymus double stranded DNA assessed as dsDNA level causing quenching of compound fluorescence by fluorescence spectrophotometric analysis; format: nucleic-acid assay, Bos taurus
[15] = biological target: T2, DNA topoisomerase 1 (Homo sapiens) (UniProt P11387); assay: Inhibition of human topoisomerase1 activity at 20 uM using pBR322 plasmid DNA as substrate incubated for 30 mins by EtBr-based gel electrophoresis
T2 sequence (whole entry): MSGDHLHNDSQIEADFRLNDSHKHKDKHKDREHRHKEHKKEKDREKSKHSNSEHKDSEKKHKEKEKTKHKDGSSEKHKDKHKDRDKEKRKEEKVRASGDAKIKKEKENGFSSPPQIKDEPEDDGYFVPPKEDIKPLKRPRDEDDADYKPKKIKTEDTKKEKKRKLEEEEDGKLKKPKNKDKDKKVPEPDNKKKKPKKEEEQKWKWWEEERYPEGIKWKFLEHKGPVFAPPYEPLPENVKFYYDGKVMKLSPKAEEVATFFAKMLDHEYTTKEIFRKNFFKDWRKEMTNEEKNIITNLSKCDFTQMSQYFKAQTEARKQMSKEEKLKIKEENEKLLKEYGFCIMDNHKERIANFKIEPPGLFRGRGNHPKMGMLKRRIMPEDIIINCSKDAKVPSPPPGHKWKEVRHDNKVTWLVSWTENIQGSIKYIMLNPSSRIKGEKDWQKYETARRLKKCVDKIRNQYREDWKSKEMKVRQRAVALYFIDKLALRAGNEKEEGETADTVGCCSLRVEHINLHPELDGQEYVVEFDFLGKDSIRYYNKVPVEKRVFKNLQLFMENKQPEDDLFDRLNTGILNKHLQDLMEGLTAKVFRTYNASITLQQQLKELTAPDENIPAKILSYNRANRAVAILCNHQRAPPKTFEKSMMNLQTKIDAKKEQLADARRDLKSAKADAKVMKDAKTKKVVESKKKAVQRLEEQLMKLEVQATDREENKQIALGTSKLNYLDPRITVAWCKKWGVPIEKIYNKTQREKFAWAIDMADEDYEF

Sequence of Serine/threonine-protein kinase pim-2 (Q9P1W9 whole entry): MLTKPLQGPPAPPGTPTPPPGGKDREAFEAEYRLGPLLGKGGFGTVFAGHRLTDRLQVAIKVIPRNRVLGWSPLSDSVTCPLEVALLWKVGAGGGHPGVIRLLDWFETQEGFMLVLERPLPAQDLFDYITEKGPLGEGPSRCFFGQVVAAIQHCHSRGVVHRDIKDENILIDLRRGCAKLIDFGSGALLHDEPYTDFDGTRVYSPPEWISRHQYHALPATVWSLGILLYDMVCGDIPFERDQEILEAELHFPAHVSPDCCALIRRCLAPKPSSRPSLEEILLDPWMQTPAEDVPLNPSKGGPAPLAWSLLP

Structure (SMILES) | IC50 [1] | Activity [2] | Activity [3] | Activity [4] | Activity [5] | Activity [6] | IC50 [7] | IC50 [8] | Activity [9] | IC50 [10] | IC50 [11] | IC50 [12] | IC50 [13] | IC50 [14] | inhibition [15]
O=C1NCc2c1c1c3ccccc3[nH]c1c1[nH]c3ccccc3c21 [STAUROSPORINONE] | 7.8 µM |  |  |  |  |  |  |  |  |  |  |  |  |  | 
O=c1[nH][nH]c(-c2c[nH]c3ccccc23)c1-c1c[nH]c2ccccc12 |  | 117% | 100% | 92% | 94% | 67% | > 50 µM | > 50 µM | 93% |  |  |  |  |  | 
c1ccc2c(-c3cn[nH]c3-c3c[nH]c4ccccc34)c[nH]c2c1 |  | 112% | 105% | 91% | 98% | 73% | 18 µM | 30 µM | 100% |  |  |  |  |  | 
c1ccc2c(c1)[nH]c1c3[nH]c4ccccc4c3c3[nH]ncc3c21 |  | 103% | 101% | 91% | 13% | 2% | 4.5 µM | 4.2 µM | 108% | 0.15 µM | 0.59 µM | 16 µM | 0.022 µM | 90 µM | inactive
O=c1[nH][nH]c2c1c1c3ccccc3[nH]c1c1[nH]c3ccccc3c12 |  | 107% | 97% | 99% | 47% | 8% | 8.8 µM | 3.5 µM | 110% |  |  |  |  |  | 
